Measured values: patent EP4230621A1, “SUBSTITUTED N-BENZOIC ACID URACILS, THEIR SALTS AND USE OF SAID COMPOUNDS AS HERBICIDAL AGENTS” (Bayer AG, priority 2022, dated 2023)

Tests used:
Format in all cases: in vivo
Amaranthus retroflexus = experiment: Post-emergence herbicidal action against AMARE (greenhouse pot test); settings: visual rating after ca. 3 weeks vs untreated controls (100% = plants dead, 0% = like controls)
Text: (§1) Die folgenden Abkürzungen werden für die in den folgenden Tabellen aufgeführten Kultur- und Schadpflanzen verwendet: ABUTH: Abutilon theophrasti ALOMY: Alopecurus myosuroides AMARE: Amaranthus retroflexus BRSNS: Brassica napus DIGSA: Digitaria sanguinalis ECHCG: Echinochloa crus-galli GLXMA: Glycine max KCHSC: Kochia scoparia LOLRI: Lolium rigidum MATIN: Matricaria inodora ORYZA: Oryza sativa PHPBU: Pharbitis purpurea POLCO: Polygonum convolvulus SETVI: Setaria viridis VERPE: Veronica persica VIOTR: Viola tricolor TRZAS: Triticum aestivum ZEAMX: Zea mays
(§2) Samen von mono- bzw. dikotylen Unkrautpflanzen wurden in Kunststoff- oder Holzfasertöpfen in sandigem Lehmboden ausgelegt, mit Erde abgedeckt und im Gewächshaus unter kontrollierten Wachstumsbedingungen angezogen. 2 bis 3 Wochen nach der Aussaat wurden die Versuchspflanzen im Einblattstadium behandelt. Die in Form von benetzbaren Pulvern (WP) oder als Emulsionskonzentrate (EC) formulierten erfindungsgemäßen Verbindungen wurden dann als wässrige Suspension bzw. Emulsion unter Zusatz von 0,5% Additiv mit einer Wasseraufwandmenge von umgerechnet 600 1/ha auf die grünen Pflanzenteile gesprüht. Nach ca. 3 Wochen Standzeit der Versuchspflanzen im Gewächshaus, unter optimalen Wachstumsbedingungen, wurde die Wirkung der Präparate visuell im Vergleich zu unbehandelten Kontrollen bonitiert. Beispielsweise bedeutet 100% Wirkung = Pflanzen sind abgestorben, 0% Wirkung = wie Kontrollpflanzen.
(§3) In den nachstehenden Tabellen A1 bis A11 sind die Wirkungen ausgewählter Verbindungen der allgemeinen Formel (I) gemäß der Tabelle 1 auf verschiedene Schadpflanzen und einer Aufwandmenge entsprechend 80 g/ha und niedriger, die gemäß zuvor genannter Versuchsvorschrift erhalten wurden, dargestellt. Tabelle A1a: Nachauflaufwirkung bei 5 g/ha gegen ABUTH in %

Alopecurus myosuroides = experiment: Post-emergence herbicidal action against ALOMY (greenhouse pot test); settings: visual rating after ca. 3 weeks vs untreated controls (100% = plants dead, 0% = like controls)
Text: as §1, §2, §3

Digitaria sanguinalis = experiment: Post-emergence herbicidal action against DIGSA (greenhouse pot test); settings: visual rating after ca. 3 weeks vs untreated controls (100% = plants dead, 0% = like controls)
Text: as §1, §2, §3

Veronica persica = experiment: Post-emergence herbicidal action against VERPE (greenhouse pot test)
Text: as §1, §2, §3

Viola tricolor = experiment: Post-emergence herbicidal action against VIOTR (greenhouse pot test)
Text: as §1, §2, §3

Pharbitis purpurea = experiment: Post-emergence herbicidal action against PHBPU (greenhouse pot test)
Text: as §1, §2, §3

Lolium rigidum = experiment: Post-emergence herbicidal action against LOLRI (greenhouse pot test); settings: visual rating after ca. 3 weeks vs untreated controls (100% = plants dead, 0% = like controls)
Text: as §1, §2, §3

Polygonum convolvulus = experiment: Post-emergence herbicidal action against POLCO (greenhouse pot test)
Text: as §1, §2, §3

Triticum aestivum = experiment: Post-emergence action on crop plants, TRZAS (greenhouse pot test); settings: crop plant
Text: as §1
as §2, with “Kulturpflanzen” for “Unkrautpflanzen”
as §3, with “B1” for “A1”, “B3” for “A11”, “Kulturpflanzen” for “Schadpflanzen”, “20” for “80”, “B1a:” for “A1a:”, “ZEAMX” for “ABUTH”

Oryza sativa = experiment: Post-emergence action on crop plants, ORYZA (greenhouse pot test); settings: 5 g/ha
Text: as §1
as §2, with “Kulturpflanzen” for “Unkrautpflanzen”
as §3, with “B1” for “A1”, “B3” for “A11”, “Kulturpflanzen” for “Schadpflanzen”, “20” for “80”, “B1a:” for “A1a:”, “ZEAMX” for “ABUTH”

Abutilon theophrasti = experiment: Post-emergence herbicidal action against ABUTH (greenhouse pot test); settings: visual rating after ca. 3 weeks vs untreated controls (100% = plants dead, 0% = like controls)
Text: as §1, §2, §3

Matricaria inodora = experiment: Post-emergence herbicidal action against MATIN (greenhouse pot test); settings: for Nachauflaufwirkung gegen MATIN: visual rating after ca. 3 weeks vs untreated controls (100% = plants dead, 0% = like controls); for Nachauflaufwirkung gegen MATIN in %: 80 g/ha
Text: as §1, §2, §3

Zea mays = experiment: Post-emergence action on crop plants, ZEAMX (greenhouse pot test); settings: 5 g/ha, crop plant
Text: as §1
as §2, with “Kulturpflanzen” for “Unkrautpflanzen”
as §3, with “B1” for “A1”, “B3” for “A11”, “Kulturpflanzen” for “Schadpflanzen”, “20” for “80”, “B1a:” for “A1a:”, “ZEAMX” for “ABUTH”

Setaria viridis = experiment: Post-emergence herbicidal action against SETVI (greenhouse pot test)
Text: as §1, §2, §3

SMILES	Nachauflaufwirkung gegen AMARE (Amaranthus retroflexus; 5 g/ha) [%]	Nachauflaufwirkung gegen AMARE (Amaranthus retroflexus; 20 g/ha) [%]	Nachauflaufwirkung gegen AMARE (Amaranthus retroflexus; 80 g/ha) [%]	Nachauflaufwirkung gegen ALOMY (Alopecurus myosuroides; 20 g/ha) [%]	Nachauflaufwirkung gegen ALOMY (Alopecurus myosuroides; 80 g/ha) [%]	Nachauflaufwirkung gegen DIGSA (Digitaria sanguinalis; 5 g/ha) [%]	Nachauflaufwirkung gegen DIGSA (Digitaria sanguinalis; 20 g/ha) [%]	Nachauflaufwirkung gegen DIGSA (Digitaria sanguinalis; 80 g/ha) [%]	Nachauflaufwirkung gegen VERPE in % (Veronica persica; 5 g/ha) [%]	Nachauflaufwirkung gegen VERPE in % (Veronica persica; 20 g/ha) [%]	Nachauflaufwirkung gegen VERPE in % (Veronica persica; 80 g/ha) [%]	Nachauflaufwirkung gegen VIOTR in % (Viola tricolor; 5 g/ha) [%]	Nachauflaufwirkung gegen VIOTR in % (Viola tricolor; 20 g/ha) [%]	Nachauflaufwirkung gegen VIOTR in % (Viola tricolor; 80 g/ha) [%]	Nachauflaufwirkung gegen PHBPU in % (Pharbitis purpurea; 5 g/ha) [%]	Nachauflaufwirkung gegen PHBPU in % (Pharbitis purpurea; 20 g/ha) [%]	Nachauflaufwirkung gegen PHBPU in % (Pharbitis purpurea; 80 g/ha) [%]	Nachauflaufwirkung gegen LOLRI (Lolium rigidum; 80 g/ha) [%]	Nachauflaufwirkung gegen POLCO in % (Polygonum convolvulus; 5 g/ha) [%]	Nachauflaufwirkung gegen POLCO in % (Polygonum convolvulus; 20 g/ha) [%]	also measured
COCCOC(=O)C(C)(C)OC(=O)c1cc(-n2c(=O)cc(C(F)(F)F)n(C)c2=O)c(F)cc1Cl [I.1-1]	100	100	100	100	100	100	100	100	100	100	100	100	100	100	80	100	100	100	100	100	Nachauflaufwirkung gegen LOLRI (Lolium rigidum; 20 g/ha): 100%; Nachauflaufwirkung gegen POLCO in % (Polygonum convolvulus; 80 g/ha): 100%; Nachauflaufwirkung gegen TRZAS in % (Triticum aestivum; 5 g/ha): 10%; Nachauflaufwirkung gegen ORYZA in % (Oryza sativa): 20%; Nachauflaufwirkung gegen ABUTH (Abutilon theophrasti; 5 g/ha): 100%; Nachauflaufwirkung gegen ABUTH (Abutilon theophrasti; 20 g/ha): 100%; Nachauflaufwirkung gegen ABUTH (Abutilon theophrasti; 80 g/ha): 100%; Nachauflaufwirkung gegen MATIN (Matricaria inodora; 5 g/ha): 100%; Nachauflaufwirkung gegen MATIN (Matricaria inodora; 20 g/ha): 100%; Nachauflaufwirkung gegen MATIN in % (Matricaria inodora): 100%; Nachauflaufwirkung gegen ZEAMX in % (Zea mays): 10%; Nachauflaufwirkung gegen SETVI in % (Setaria viridis; 5 g/ha): 100%; Nachauflaufwirkung gegen SETVI in % (Setaria viridis; 20 g/ha): 100%; Nachauflaufwirkung gegen SETVI in % (Setaria viridis; 80 g/ha): 100%
CCOCCOC(=O)C(C)(C)OC(=O)c1cc(-n2c(=O)cc(C(F)(F)F)n(C)c2=O)c(F)cc1Cl [I.1-2]	100	100	100	90	100	100	100	100	100	100	100	100	100	100	100	100	100	100	100	100	Nachauflaufwirkung gegen POLCO in % (Polygonum convolvulus; 80 g/ha): 100%; Nachauflaufwirkung gegen TRZAS in % (Triticum aestivum; 5 g/ha): 10%; Nachauflaufwirkung gegen TRZAS in % (Triticum aestivum; 20 g/ha): 20%; Nachauflaufwirkung gegen ORYZA in % (Oryza sativa): 0%; Nachauflaufwirkung gegen ABUTH (Abutilon theophrasti; 5 g/ha): 100%; Nachauflaufwirkung gegen ABUTH (Abutilon theophrasti; 20 g/ha): 100%; Nachauflaufwirkung gegen ABUTH (Abutilon theophrasti; 80 g/ha): 100%; Nachauflaufwirkung gegen MATIN (Matricaria inodora; 5 g/ha): 100%; Nachauflaufwirkung gegen MATIN (Matricaria inodora; 20 g/ha): 100%; Nachauflaufwirkung gegen MATIN in % (Matricaria inodora): 100%; Nachauflaufwirkung gegen ZEAMX in % (Zea mays): 20%; Nachauflaufwirkung gegen SETVI in % (Setaria viridis; 5 g/ha): 100%; Nachauflaufwirkung gegen SETVI in % (Setaria viridis; 20 g/ha): 100%; Nachauflaufwirkung gegen SETVI in % (Setaria viridis; 80 g/ha): 100%
Cn1c(C(F)(F)F)cc(=O)n(-c2cc(C(=O)OC(C)(C)C(=O)OCC#N)c(Cl)cc2F)c1=O [I.1-176, 1-(Cyanmethoxy)-2-methyl-1-oxopropan-2-yl-2-chlor-4-fluor-5-[3-methyl-2,6-dioxo-4-(trifluormethyl)-3,6-dihydropyrimidin-1(2H)-yl]benzoat]	100	100	100	80	100	100	100	100	100	100	100	100	100	100	100	100	100	90	100	100	Nachauflaufwirkung gegen POLCO in % (Polygonum convolvulus; 80 g/ha): 100%; Nachauflaufwirkung gegen TRZAS in % (Triticum aestivum; 5 g/ha): 10%; Nachauflaufwirkung gegen TRZAS in % (Triticum aestivum; 20 g/ha): 10%; Nachauflaufwirkung gegen ABUTH (Abutilon theophrasti; 5 g/ha): 100%; Nachauflaufwirkung gegen ABUTH (Abutilon theophrasti; 20 g/ha): 100%; Nachauflaufwirkung gegen ABUTH (Abutilon theophrasti; 80 g/ha): 100%; Nachauflaufwirkung gegen MATIN (Matricaria inodora; 5 g/ha): 100%; Nachauflaufwirkung gegen MATIN (Matricaria inodora; 20 g/ha): 100%; Nachauflaufwirkung gegen MATIN in % (Matricaria inodora): 100%; Nachauflaufwirkung gegen SETVI in % (Setaria viridis; 5 g/ha): 100%; Nachauflaufwirkung gegen SETVI in % (Setaria viridis; 20 g/ha): 100%; Nachauflaufwirkung gegen SETVI in % (Setaria viridis; 80 g/ha (dose column; title A9c prints 20 g/ha)): 100%
CC(C)=NOC(=O)C(C)(C)OC(=O)c1cc(-n2c(=O)cc(C(F)(F)F)n(C)c2=O)c(F)cc1Cl [I.1-476]	100	100	100	100	100	100	100	100	100	100	100	100	100	100	100	100	100	100	100	100	Nachauflaufwirkung gegen POLCO in % (Polygonum convolvulus; 80 g/ha): 100%; Nachauflaufwirkung gegen TRZAS in % (Triticum aestivum; 5 g/ha): 10%; Nachauflaufwirkung gegen TRZAS in % (Triticum aestivum; 20 g/ha): 10%; Nachauflaufwirkung gegen ABUTH (Abutilon theophrasti; 5 g/ha): 100%; Nachauflaufwirkung gegen ABUTH (Abutilon theophrasti; 20 g/ha): 100%; Nachauflaufwirkung gegen ABUTH (Abutilon theophrasti; 80 g/ha): 100%; Nachauflaufwirkung gegen MATIN (Matricaria inodora; 5 g/ha): 100%; Nachauflaufwirkung gegen MATIN (Matricaria inodora; 20 g/ha): 100%; Nachauflaufwirkung gegen MATIN in % (Matricaria inodora): 100%; Nachauflaufwirkung gegen ZEAMX in % (Zea mays): 20%; Nachauflaufwirkung gegen SETVI in % (Setaria viridis; 5 g/ha): 100%; Nachauflaufwirkung gegen SETVI in % (Setaria viridis; 20 g/ha): 100%; Nachauflaufwirkung gegen SETVI in % (Setaria viridis; 80 g/ha): 100%
